For orientation: melting point means the temperature, or range, at which the solid turns liquid. For the compound `CCc1ccc(Cc2c(O[C@@H]3S[C@H](CO)[C@@H](O)[C@H](O)[C@H]3O)nn(C(C)C)c2C)cc1` [Compound 1, 4′-(4′-ethylbenzyl)-1′-isopropyl-5′-methyl-1′H-pyrazol-3′-yl 5-thio-β-D-glucopyranoside], the melting point lay in the range of 54 to 58.5 °C. Next, `COc1ccc(Cc2c(O[C@@H]3S[C@H](CO)[C@@H](O)[C@H](O)[C@H]3O)n[nH]c2C)cc1F` [Compound 4, 4′-[(3′-fluoro-4′-methoxyphenyl)methyl]-5′-methyl-1′H-pyrazol-3′-yl 5-thio-β-D-glucopyranoside]: 145 to 147 °C; `CCOC(=O)OC[C@H]1S[C@@H](Oc2nn(C(=O)OCC)c(C)c2Cc2ccc(OC)cc2)[C@H](O)[C@@H](O)[C@@H]1O` [Compound 8, 1′-ethoxycarbonyl-4′-[(4′-methoxyphenyl)methyl]-5′-methyl-pyrazol-3′-yl 6-O-ethoxycarbonyl-5-thio-β-D-glucopyranoside]: 106 to 110 °C; `CCc1ccc(Cc2ccncc2O[C@@H]2S[C@H](CO)[C@@H](O)[C@H](O)[C@H]2O)cc1` [Compound 20, 4′-(4′-ethylbenzyl)pyridin-3′-yl 5-thio-β-D-glucopyranoside]: 184 to 187 °C. `CCc1ccc(Cc2nccnc2O[C@@H]2S[C@H](CO)[C@@H](O)[C@H](O)[C@H]2O)cc1` [Compound 23, 3′-(4′-ethylbenzyl)-1′H-pyrazin-2′-yl 5-thio-β-D-glucopyranoside] displayed a melting point of 181 to 183.5 °C. With `CCc1ccc(Cc2c(C)nc(C)nc2O[C@@H]2S[C@H](CO)[C@@H](O)[C@H](O)[C@H]2O)cc1` [Compound 24, 5′-(ethylbenzyl)-2′,6′-dimethyl-3′H-pyrimidin-4′-yl 5-thio-β-D-glucopyranoside] the figure was 143 to 147.5 °C; with `OCCc1ccc(Cc2ccncc2O[C@@H]2S[C@H](CO)[C@@H](O)[C@H](O)[C@H]2O)cc1` [Compound 32, 4′-[4′-(2′-hydroxyethyl)benzyl]pyridin-3′-yl 5-thio-β-D-glucopyranoside], 194.5 to 195 °C.
